Data: patent publication US8557854B2, “Use of a sulfonamide compound for improving the pharmacokinetics of a drug” (Janssen R&D Ireland, priority 2005, dated 2013)
Like-named read-outs stand apart in the source and are kept apart here.

Tests used:
[1] = type: in vivo, NZW rabbits
[2] = system: large panel of viruses resistant to currently known PIs; conditions: disclosed in WO 02/092595; cited from earlier work
wild-type HIV-1 = conditions: disclosed in WO 02/092595; cited from earlier work
Caco-2 monolayers = experiment: Bi-directional protease inhibitor transport across Caco-2 monolayers (efflux ratio); type: in vitro ADME; conditions: Caco-2, 100 μM
Source text: (§1) The transport of experimental protease inhibitors was studied in Caco-2 monolayers grown to confluency.

CYP450 3A4 = molecular target: T1, CYP450 3A4 (Homo sapiens, UniProt P08684); experiment: In vitro inhibition of CYP3A4: testosterone 6β-hydroxylation in human liver microsomes; type: biochemical
T1 construct: mediated by CYP450 3A4 in human liver microsomes; from tissue; host or cells: human liver microsomes
T1 sequence (P08684 whole entry): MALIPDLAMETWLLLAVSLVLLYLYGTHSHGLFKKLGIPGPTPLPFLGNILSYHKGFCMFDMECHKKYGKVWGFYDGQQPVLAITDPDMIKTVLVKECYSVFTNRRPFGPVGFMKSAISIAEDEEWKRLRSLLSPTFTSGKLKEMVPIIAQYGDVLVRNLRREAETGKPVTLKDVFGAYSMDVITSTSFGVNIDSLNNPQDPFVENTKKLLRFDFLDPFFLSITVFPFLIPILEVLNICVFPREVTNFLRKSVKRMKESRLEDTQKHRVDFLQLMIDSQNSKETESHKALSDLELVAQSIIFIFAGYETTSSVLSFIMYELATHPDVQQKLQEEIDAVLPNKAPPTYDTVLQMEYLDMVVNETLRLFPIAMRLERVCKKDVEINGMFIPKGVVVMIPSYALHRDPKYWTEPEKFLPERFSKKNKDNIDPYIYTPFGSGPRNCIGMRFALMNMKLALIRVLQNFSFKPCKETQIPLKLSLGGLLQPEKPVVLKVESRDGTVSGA

[3] = Bi-directional protease inhibitor transport across Caco-2 monolayers (efflux ratio); type: in vitro ADME; conditions: human, Caco-2, control (no inhibitor), 90 min
Source text: as §1

[4] = Phase I trial: effect of compound A on single dose pharmacokinetics of saquinavir in healthy subjects; conditions: human, in vivo, 1000 mg
Protocol: [drawing 12] was used in a Phase I, open-label, randomized trial in healthy subjects to investigate the steady state pharmacokinetics of compound A, and its effect on the single dose pharmacokinetics of the protease inhibitor saquinavir. Three panels of 8 healthy subjects took a single dose of 1000 mg saquinavir alone, and while taking compound A. The pharmacokinetics of the two intakes of saquinavir was compared. On Day 1 in all panels, all subjects received a single dose of 1000 mg saquinavir. From Day 4 to Day 10, one group of healthy volunteers (Panel 1) received 60 mg compound A b.i.d., one group received 160 mg compound A b.i.d. (Panel 2) and one group took 400 mg compound A b.i.d. (Panel 3). On Day 9, all subjects took a single dose of 1000 mg saquinavir simultaneously with compound A. Full pharmacokinetic profiles of compound A were determined on Day 4, Day 8 and Day 9. Full pharmacokinetic profiles of saquinavir were determined on Day 1 and on Day 9.

For `CC(C)CN(C[C@@H](O)[C@H](Cc1ccccc1)NC(=O)OCc1cncs1)S(=O)(=O)c1ccc2nc(N)oc2c1` [Compound A, 5-thiazolylmethyl[(1S,2R)-3[[(2-amino-6-benzoxazolyl)sulfonyl]-(2-methylpropyl)amino]-2-hydroxy-1-(phenylmethyl)propyl]carbamate], the “effect on plasma level of darunavir in rabbits” value [1] is given as “increase”, the “activity against a large panel of viruses resistant to currently known PIs” value [2] is given as “has also activity” and the “in vitro activity against wild-type HIV-1” value (wild-type HIV-1) is given as “has in vitro activity”. For the same molecule, the “effect on transport polarity of protease inhibitors (Pgp efflux)” value (Caco-2 monolayers) was “significantly reduce the transport polarity”, the IC50 (CYP450 3A4; testosterone 6β-hydroxylation, read-out: IC50 of CYP3A4 mediated metabolism) was 25 to 100 nM and the Ki (CYP450 3A4; testosterone metabolism, non-competitive inhibition model, read-out: inhibition constant Ki of CYP3A4 inhibition) was 65 nM.

Molecule `CC(C)CN(C[C@@H](O)[C@H](Cc1ccccc1)NC(=O)O[C@H]1CO[C@H]2OCC[C@H]21)S(=O)(=O)c1ccc2nc(NCCN3CCCC3)sc2c1` [Compound B] has an efflux ratio at 90 min, 30 μM ([3]; compound B 30 μM, read-out: efflux ratio (ER) of compound B) of 171.

In the case of `CCN1CCC[C@@H]1CNc1nc2ccc(S(=O)(=O)N(CC(C)C)C[C@@H](O)[C@H](Cc3ccccc3)NC(=O)O[C@H]3CO[C@H]4OCC[C@H]43)cc2s1` [Compound C], the efflux ratio at 90 min, 30 μM ([3]; compound C 30 μM, read-out: efflux ratio (ER) of compound C) is reported as 119.

With `CC(C)CN(C[C@H](O)[C@@H](Cc1ccccc1)NC(=O)OCc1cncs1)S(=O)(=O)c1ccc2nc(N)oc2c1` [Compound E, 5-thiazolylmethyl[(1R,2S)-3[[(2-amino-6-benzoxazolyl)sulfonyl](2-methylpropyl)amino]-2-hydroxy-1-(phenylmethyl)propyl]carbamate] the “effect on plasma level of darunavir in rabbits” value [1] was “increase”.

With `CC(C)(C)NC(=O)[C@@H]1C[C@@H]2CCCC[C@@H]2CN1C[C@@H](O)[C@H](Cc1ccccc1)NC(=O)[C@H](CC(N)=O)NC(=O)c1ccc2ccccc2n1` [saquinavir] the tmax of saquinavir [4] was 5.0 (2.0-6.0) h, the AUC(0-t) ([4]; AUClast of saquinavir) was 515 ± 306 ng·h/mL and the Cmax ([4]; Cmax of saquinavir) was 117 ± 77.7 ng/mL. For the same molecule, the Tmax ([4]; tmax of saquinavir) was 4.5 h.
